US8791145B2, “Agricultural formulations with acyl morpholines and polar aprotic co-solvents” (Akzo Nobel Chemicals International B.V., priority 2010, dated 2014)
Blank lines part the entries; values can stand above or below the molecule they belong to.

Assays:
Format in all cases: physicochemical
[1] = Differential scanning calorimetry, enthalpy of evaporation; conditions: DSC 20° C. to 300° C., 5° C./minute
Experimental: To monitor the enthalpy of evaporation differential scanning calorimetry was used. The reason for these measurements was to determine the cohesion forces between N-formyl morpholine and propylene carbonate. The mixtures (N-formyl morpholine/propylene carbonate in different ratio) were scanned from 20° C. to 300° C. with a temperature increase of 5° C./minute, using a DSC1 calorimeter from Mettler Toledo with STARe software.

[2] = Dilution of Amicarbazone formulation in water, ocular inspection; set-up: key: +: No crystals; −: Permanent crystals; conditions: 100 g/L diluted to 7 g/L
Experimental: The co-solvents used were propylene carbonate (PC), dimethylformamide (DMF) and ethyl lactate (EL). The amount of each co solvent, in % by weight of the total weight of morpholine and co-solvent, can be seen in table 2. The solutions were diluted in local tap water to an end concentration of 7 g/L and the dilution was judged by ocular inspection with the naked eye, and in the table below the following is used: • + No crystals • − Permanent crystals

[3] = Solubility in acyl morpholines; conditions: 23° C.
Experimental: Various agriculturally active ingredients were dissolved in N-formyl morpholine, N-acetyl morpholine and N-propionyl morpholine in order to evaluate the solubility of the active ingredients in the solvents. This was done by adding the active ingredient to a beaker and thereafter adding the solvent until a clear solution was obtained. The solutions were continually stirred at a temperature of 23° C. during the experiments. When everything had been dissolved, the beakers were left without stirring for 24 h to see if the solution was stable (i.e. no crystallization).

Compound: O=CN1CCOCC1 [100:0, 4-formyl morpholine]
- Enthalpy of evaporation [1]: 382 J/g

Compound: COc1c(Cl)ccc(Cl)c1C(=O)O [Dicamba]
- Dissolution of active ingredient into N-acetyl morpholine (NAM) [3]: >100 grams of active ingredient in 100 g solvent
- Dissolution of active ingredient into N-formyl morpholine (NFM) [3]: >100 grams of active ingredient in 100 g solvent
- Dissolution of active ingredient into N-propionyl morpholine (NPM) [3]: >100 grams of active ingredient in 100 g solvent

Compound: CC1(C)CCC(Cc2ccc(Cl)cc2)C1(O)Cn1cncn1 (centres unmarked) [Metconazole]
- Dissolution of active ingredient into N-acetyl morpholine (NAM) [3]: >25 grams of active ingredient in 100 g solvent
- Dissolution of active ingredient into N-formyl morpholine (NFM) [3]: >25 grams of active ingredient in 100 g solvent
- Dissolution of active ingredient into N-propionyl morpholine (NPM) [3]: >25 grams of active ingredient in 100 g solvent

More lines, now with the values ahead:

- Enthalpy of evaporation [1]: 392 J/g
Compound: CC1COC(=O)O1 (centres unmarked) [0:100, propylene carbonate]

- Crystallization upon dilution in water ([2]; NAM, 0% DMF): −
- Crystallization upon dilution in water ([2]; NAM, 0% EL): −
- Crystallization upon dilution in water ([2]; NAM, 0% PC): −
- Crystallization upon dilution in water ([2]; NAM, 5% DMF): −
- Crystallization upon dilution in water ([2]; NAM, 5% EL): −
- Crystallization upon dilution in water ([2]; NAM, 5% PC): −
- Crystallization upon dilution in water ([2]; NAM, 10% DMF): −
- Crystallization upon dilution in water ([2]; NAM, 10% EL): −
- Crystallization upon dilution in water ([2]; NAM, 10% PC): −
- Crystallization upon dilution in water ([2]; NAM, 20% DMF): −
- Crystallization upon dilution in water ([2]; NAM, 20% EL): −
- Crystallization upon dilution in water ([2]; NAM, 20% PC): −
- Crystallization upon dilution in water ([2]; NAM, 30% DMF): −
- Crystallization upon dilution in water ([2]; NAM, 30% EL): −
- Crystallization upon dilution in water ([2]; NAM, 30% PC): −
- Crystallization upon dilution in water ([2]; NAM, 50% DMF): −
- Crystallization upon dilution in water ([2]; NAM, 50% EL): −
- Crystallization upon dilution in water ([2]; NAM, 50% PC): −
- Crystallization upon dilution in water ([2]; NAM, 95% DMF): +
- Crystallization upon dilution in water ([2]; NAM, 95% EL): −
- Crystallization upon dilution in water ([2]; NAM, 95% PC): −
- Crystallization upon dilution in water ([2]; NFM, 0% DMF): −
- Crystallization upon dilution in water ([2]; NFM, 0% EL): −
- Crystallization upon dilution in water ([2]; NFM, 0% PC): −
- Crystallization upon dilution in water ([2]; NFM, 5% DMF): −
- Crystallization upon dilution in water ([2]; NFM, 5% EL): −
- Crystallization upon dilution in water ([2]; NFM, 5% PC): −
- Crystallization upon dilution in water ([2]; NFM, 10% DMF): −
- Crystallization upon dilution in water ([2]; NFM, 10% EL): −
- Crystallization upon dilution in water ([2]; NFM, 10% PC): −
- Crystallization upon dilution in water ([2]; NFM, 20% DMF): −
- Crystallization upon dilution in water ([2]; NFM, 20% EL): −
- Crystallization upon dilution in water ([2]; NFM, 20% PC): +
- Crystallization upon dilution in water ([2]; NFM, 30% DMF): −
- Crystallization upon dilution in water ([2]; NFM, 30% EL): −
- Crystallization upon dilution in water ([2]; NFM, 30% PC): −
- Crystallization upon dilution in water ([2]; NFM, 50% DMF): −
- Crystallization upon dilution in water ([2]; NFM, 50% EL): −
- Crystallization upon dilution in water ([2]; NFM, 50% PC): −
- Crystallization upon dilution in water ([2]; NFM, 95% DMF): +
- Crystallization upon dilution in water ([2]; NFM, 95% EL): −
- Crystallization upon dilution in water ([2]; NFM, 95% PC): −
Compound: CC(C)c1nn(C(=O)NC(C)(C)C)c(=O)n1N [Amicarbazone]
